Measured values published in patent US7744927B2, “Methods of promoting hematopoietic and mesenchymal cell proliferation and differentiation” (University of Southern California, priority 1997, dated 2010).

How the values were obtained:
[1] = test system: Murine Peritoneal Macrophages; test: Phagocytosis of opsonized yeast by murine peritoneal macrophages; format: cell-based, C57B1/6 mice; conditions: for # Macrophages with Yeast, Yeast # 0 / # Macrophages with Yeast, Yeast # 1-3 / # Macrophages with Yeast, Yeast # 4-6 / # Macrophages with Yeast, Yeast # 7-9 / # Yeast/MO / % Ingesting: 4 hours
Experimental: Resident peritoneal macrophages have very little phagocytic activity. Exposure of macrophages to inflammatory or activating agents will increase this macrophage function. Resident peritoneal macrophages were harvested from C57B1/6 mice or Sprague Dawley rats and resuspended at a concentration of 1×10^6 cells/ml in phosphate buffered saline (PBS). Five separate 0.5 ml cell aliquots were placed on a glass coverslip in a 35 mm petri dish. Prior to incubation, either 0.5 ml of PBS, AII, or AII analogues or fragments at between 1-1000 ug/ml final concentration was added to the individual cover slips. The dishes containing the cover slips were then incubated at 37° C. for 4 hours, after which the cover slips were washed 3 to 6 times with PBS. Opsonized yeast particles (Sigma Chemical Co.) (yeast opsonized with adult serum from the same species as that under study) were added to the cover slips and incubated for 2 hours, after which the cover slips were again washed with PBS and inverted onto a glass slide. The number of macrophages that ingested yeast and the number of yeast per macrophage ingested was then determined microscopically. At least 100 macrophages per coverslip were counted. The data from this study are summarized in Tables 3 and 4 and FIGS. 1 and 2.

[2] = test system: rat peritoneal macrophages; test: Respiratory burst (hydrogen peroxide generation), rat peritoneal macrophages; format: cell-based; conditions: alone and in response to PMA 10 ng/ml; 4 hours exposure
Experimental: (§1) The respiratory burst of leukocytes (macrophages and polymorphonuclear neutrophils) is one component of the mediator system used to kill bacteria. As with phagocytosis, the level of this respiratory burst activity in resident macrophages is low. […] Studies were conducted to assess the effect of in vitro exposure of murine or rat peritoneal macrophages and human peripheral blood mononuclear cells (PBMC) to various concentrations of AII on the capacity to generate hydrogen peroxide via the respiratory burst system. For the human studies, five different donors were examined.
The murine or rat peritoneal cells were harvested by lavage with 5-15 ml of cold PBS with 0.5% bovine serum albumin. The human PBMC were harvested by venipuncture from normal human volunteers and isolated from peripheral blood by Ficoll Hypaque density centrifugation. After isolation, the cells were resuspended at 1×10^6 cells/ml and placed at 100 μl per well into 96 well plates. The cells were incubated with various concentrations of AII or AII analogues for 4 hours at 37° C. The cells were then preloaded with a fluorescent probe for hydrogen peroxide, 2,7 dichlorofluorescein acetate, which is nonfluorescent in the absence of hydrogen peroxide. […] One hour after stimulation the level of fluorescence produced was measured on a Cytofluor 2350 multiwell fluorometer.

[3] = test system: human peripheral blood mononuclear cells (PBMC); test: Respiratory burst (hydrogen peroxide generation), human PBMC; format: cell-based; conditions: alone and in response to PMA 10 ng/ml; 4 hours exposure
Experimental: as §1
The murine or rat peritoneal cells were harvested by lavage with 5-15 ml of cold PBS with 0.5% bovine serum albumin. The human PBMC were harvested by venipuncture from normal human volunteers and isolated from peripheral blood by Ficoll Hypaque density centrifugation. After isolation, the cells were resuspended at 1×10^6 cells/ml and placed at 100 μl per well into 96 well plates. The cells were incubated with various concentrations of AII or AII analogues for 4 hours at 37° C. The cells were then preloaded with a fluorescent probe for hydrogen peroxide, 2,7 dichlorofluorescein acetate, which is nonfluorescent in the absence of hydrogen peroxide. Fifteen minutes later, 10 ng/ml of phorbol myristate acetate (+PMA) or PBS (−PMA) was added to stimulate the production of hydrogen peroxide. One hour after stimulation the level of fluorescence produced was measured on a Cytofluor 2350 multiwell fluorometer.

[4] = test system: Human PBMC; test: Proliferation of human PBMC, 3H-thymidine incorporation with or without pokeweed mitogen; format: cell-based; conditions: for Stimulation Index (SI): stimulated counts / counts without mitogen
Experimental: Upon stimulation of lymphocytes with mitogen or antigen, these cells undergo blastogenesis and proliferation. In the absence of such stimuli, proliferation is seldom observed. One method to measure cellular proliferation in a short term assay is via measurement of the amount of the nucleotide thymidine that is incorporated into newly synthesized DNA. The effect of AII on the proliferation of human PBMC in the presence and absence of pokeweed mitogen (“PWM”) was assessed.
Human PBMC were collected from normal volunteers and isolated via Ficoll Hypaque (Sigma Chemical, St. Louis) density centrifugation. After isolation of the buffy coat, the cells were washed 3× to remove the Ficoll Hypaque, counted in trypan blue (0.01%) and resuspended at a concentration of 1×10^6 cells/ml in RPMI 1640 containing 10% fetal calf serum and antibiotics. A 100 μl aliquot of cells was added to each well. Thereafter, various concentrations (0.1 to 1000 μg/ml final concentration) of AII in RPMI 1640 containing 10% FCS and antibiotics were added to various wells in triplicate. To the appropriate wells, PWM (20 μg/ml final concentration) was added. These plates were incubated at 37° C. in 5% CO2 for 48 hours. Subsequently, 0.5 μCi of ^3H-thymidine was added to each well, which were incubated at 37° C. for an additional 24 hours prior to harvest by a multiwell automated sample harvester (Skatron) onto glass fiber filters. These filters were dried, placed in scintillation fluid and the amount of thymidine incorporated was determined by beta counting.

[5] = test system: wound tissue; conditions: application to wound tissue; cited from earlier work

Asp-Arg-Val-Tyr-Ile-His-Pro-Phe [AII, known pressor agent, commercially available]
phagocytic capability of peritoneal macrophages ([1]; 10 μg/ml or greater): tremendously increased | # Macrophages with Yeast, Yeast # 0 ([1]; AII 1 μg/ml): 100 | # Macrophages with Yeast, Yeast # 1-3 ([1]; AII 1 μg/ml): 1 | # Macrophages with Yeast, Yeast # 4-6 ([1]; AII 1 μg/ml): 0 | # Macrophages with Yeast, Yeast # 7-9 ([1]; AII 1 μg/ml): 0 | # Yeast/MO ([1]; AII 1 μg/ml): 0.01 | % Ingesting ([1]; AII 1 μg/ml): 1% | # Macrophages with Yeast, Yeast # 0 ([1]; AII 10 μg/ml): 100 | # Macrophages with Yeast, Yeast # 1-3 ([1]; AII 10 μg/ml): 3 | # Macrophages with Yeast, Yeast # 4-6 ([1]; AII 10 μg/ml): 4 | # Macrophages with Yeast, Yeast # 7-9 ([1]; AII 10 μg/ml): 0 | # Yeast/MO ([1]; AII 10 μg/ml): 0.24 | % Ingesting ([1]; AII 10 μg/ml): 6.5% | # Macrophages with Yeast, Yeast # 0 ([1]; AII 100 μg/ml): 100 | # Macrophages with Yeast, Yeast # 1-3 ([1]; AII 100 μg/ml): 10 | # Macrophages with Yeast, Yeast # 4-6 ([1]; AII 100 μg/ml): 10 | # Macrophages with Yeast, Yeast # 7-9 ([1]; AII 100 μg/ml): 0 | # Yeast/MO ([1]; AII 100 μg/ml): 0.58 | # Yeast/MO ([1]; AII 1000 μg/ml (highest concentration)): 1 | # Macrophages with Yeast, Yeast # 0 ([1]; AII 1000 μg/ml): 100 | # Macrophages with Yeast, Yeast # 1-3 ([1]; AII 1000 μg/ml): 20 | # Macrophages with Yeast, Yeast # 4-6 ([1]; AII 1000 μg/ml): 20 | # Macrophages with Yeast, Yeast # 7-9 ([1]; AII 1000 μg/ml): 0 | ability to generate hydrogen peroxide (respiratory burst) [2]: increased the ability of leukocytes to generate hydrogen peroxide | ability to generate hydrogen peroxide (respiratory burst) [3]: increased the ability of leukocytes to generate hydrogen peroxide | Stimulation Index (SI) ([4]; AII Concentration 0.1, Experiment 1 (donor 1)): 3.54 | Stimulation Index (SI) ([4]; AII Concentration 0.1, Experiment 2 (donor 2)): 38.13 | cpm 3H-Thymidine Incorporated ([4]; AII Concentration 0.1, PWM, Experiment 1 (donor 1)): 1329.0 cpm | cpm 3H-Thymidine Incorporated ([4]; AII Concentration 0.1, PWM, Experiment 2 (donor 2)): 2135.0 cpm | Stimulation Index (SI) ([4]; AII Concentration 1, Experiment 1 (donor 1)): 5.88 | Stimulation Index (SI) ([4]; AII Concentration 1, Experiment 2 (donor 2)): 62.42 | cpm 3H-Thymidine Incorporated ([4]; AII Concentration 1, PWM, Experiment 1 (donor 1)): 1411.2 cpm | cpm 3H-Thymidine Incorporated ([4]; AII Concentration 1, PWM, Experiment 2 (donor 2)): 2996.0 cpm | Stimulation Index (SI) ([4]; AII Concentration 10, Experiment 1 (donor 1)): 5.34 | Stimulation Index (SI) ([4]; AII Concentration 10, Experiment 2 (donor 2)): 75.88 | cpm 3H-Thymidine Incorporated ([4]; AII Concentration 10, PWM, Experiment 1 (donor 1)): 1427.0 cpm | cpm 3H-Thymidine Incorporated ([4]; AII Concentration 10, PWM, Experiment 2 (donor 2)): 3946.0 cpm | Stimulation Index (SI) ([4]; AII Concentration 100, Experiment 1 (donor 1)): 11.41 | Stimulation Index (SI) ([4]; AII Concentration 100, Experiment 2 (donor 2)): 69.39 | cpm 3H-Thymidine Incorporated ([4]; AII Concentration 100, PWM, Experiment 1 (donor 1)): 1552.1 cpm | cpm 3H-Thymidine Incorporated ([4]; AII Concentration 100, PWM, Experiment 2 (donor 2)): 3747.0 cpm | Stimulation Index (SI) ([4]; AII Concentration 1000, Experiment 1 (donor 1)): 15.48 | Stimulation Index (SI) ([4]; AII Concentration 1000, Experiment 2 (donor 2)): 89.63 | cpm 3H-Thymidine Incorporated ([4]; AII Concentration 1000, PWM, Experiment 1 (donor 1)): 1551.5 cpm | cpm 3H-Thymidine Incorporated ([4]; AII Concentration 1000, PWM, Experiment 2 (donor 2)): 4302.0 cpm | thymidine incorporated in response to PWM ([4]; PWM 20 μg/ml, two donors): increase the amount of thymidine incorporated | thymidine incorporation ([4]; absence of mitogen): no increase in thymidine incorporation | rate of wound healing [5]: significantly increases the rate of wound healing
